{"source": "patent US5883293A", "about": "“Conformationally constrained backbone cyclized peptide analogs” (Peptor Ltd., priority 1994, dated 1999)", "key": {"[1]": {"experiment": "Lack of toxicity of cyclized peptide analogs in rats", "assay_type": "in vivo", "excerpt": "Lack of toxicity of cyclized peptide analogs\nThese two doses are several orders of magnitude higher than those needed to elicit the desired endocrine effect. The peptides dissolved in saline produced no untoward side effects on the central nervous system, cardiovascular system, body temperature, nor on the periphery of the animals."}, "[2]": {"biological_target": "Somatostatin Receptor (SSTR) Subtype SSTR-5 (Homo sapiens, UniProt P35346)", "sequence (P35346 whole entry)": "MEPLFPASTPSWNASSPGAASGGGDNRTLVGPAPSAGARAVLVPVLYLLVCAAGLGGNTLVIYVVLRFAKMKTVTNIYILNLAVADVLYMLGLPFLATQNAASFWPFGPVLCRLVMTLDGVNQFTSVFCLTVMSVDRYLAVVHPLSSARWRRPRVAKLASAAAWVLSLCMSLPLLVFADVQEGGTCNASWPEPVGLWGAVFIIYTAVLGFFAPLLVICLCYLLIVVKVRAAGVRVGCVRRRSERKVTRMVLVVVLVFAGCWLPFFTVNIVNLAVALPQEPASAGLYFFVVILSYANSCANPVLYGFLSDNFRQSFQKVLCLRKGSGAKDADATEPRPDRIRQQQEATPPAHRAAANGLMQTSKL", "experiment": "Inhibition of radioactive iodinated somatostatin (SRIF-14) binding, CHO cells expressing SSTR-5", "conditions": "read-out: percent inhibition of SRIF-14 binding, SSTR-5; for inhibition at 1 µM: Conc. 10^-6 M; for inhibition at 0.1 µM: Conc. 10^-7 M; for inhibition at 0.01 µM: Conc. 10^-8 M", "excerpt": "(§1) Receptor binding specificity of cyclic peptide analogs\n(§2) The values presented are percent inhibition of radioactive iodinated somatostatin (SRIF-14) binding."}, "[3]": {"system": "Somatostatin Receptor (SSTR) Subtype SSTR-2B", "sequence (P30874 1-356 isoform P30874-2)": "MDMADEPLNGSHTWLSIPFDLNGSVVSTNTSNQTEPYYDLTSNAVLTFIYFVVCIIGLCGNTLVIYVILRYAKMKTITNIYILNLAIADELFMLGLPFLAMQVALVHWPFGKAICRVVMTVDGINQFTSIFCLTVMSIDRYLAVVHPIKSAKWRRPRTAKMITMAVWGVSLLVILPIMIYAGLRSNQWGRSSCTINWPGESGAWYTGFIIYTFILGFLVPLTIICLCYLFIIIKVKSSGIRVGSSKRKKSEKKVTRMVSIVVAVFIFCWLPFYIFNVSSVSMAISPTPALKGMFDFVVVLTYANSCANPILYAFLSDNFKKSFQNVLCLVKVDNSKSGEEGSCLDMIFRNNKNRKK", "experiment": "Inhibition of radioactive iodinated somatostatin (SRIF-14) binding, CHO cells expressing SSTR-2B", "conditions": "read-out: percent inhibition of SRIF-14 binding, SSTR-2B; for inhibition at 1 µM: Conc. 10^-6 M; for inhibition at 0.1 µM: Conc. 10^-7 M; for inhibition at 0.01 µM: Conc. 10^-8 M", "excerpt": "as §1, §2"}, "[4]": {"experiment": "In vitro biostability in human serum (HPLC determination of peptide degradation)", "assay_type": "in vitro ADME", "conditions": "37° C., FIG. 1", "procedure": "FIG. 1 is a graph showing in vitro biostability of somatostatin and three analogs thereof in human serum. The graph depicts the percentage of undegraded molecules for each of the compounds initially and after various periods of time.\nResistance to biodegradation of SST analogs\nThe in vitro biostability of a SST cyclic peptide analog, PTR 3002, was measured in human serum, and was compared to the same sequence in a non-cyclic peptide analog (PTR 3001), to octreotide (Sandostatin), and to native somatostatin (SRIF). […] The assay was based on HPLC determination of peptide degradation as a function of time at 37° C."}, "[5]": {"biological_target": "T1, bradykinin receptors (PC 12 cells) (Rattus norvegicus, UniProt P25023)", "T1 construct": "PC 12 cells that express bradykinin receptors; endogenous in cells; host or cells: PC12 cells", "T1 sequence (P25023 1-396)": "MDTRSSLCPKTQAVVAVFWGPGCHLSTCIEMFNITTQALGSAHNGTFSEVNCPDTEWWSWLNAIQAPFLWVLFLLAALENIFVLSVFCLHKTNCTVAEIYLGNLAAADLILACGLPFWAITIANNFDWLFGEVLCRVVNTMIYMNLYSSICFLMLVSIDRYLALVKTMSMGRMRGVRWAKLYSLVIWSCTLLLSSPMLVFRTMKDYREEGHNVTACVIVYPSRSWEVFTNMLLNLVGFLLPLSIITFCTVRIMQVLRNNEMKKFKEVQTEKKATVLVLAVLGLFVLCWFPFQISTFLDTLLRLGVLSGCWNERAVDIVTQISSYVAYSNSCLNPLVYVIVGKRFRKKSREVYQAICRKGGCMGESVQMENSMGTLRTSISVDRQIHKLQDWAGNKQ", "experiment": "Bradykinin antagonist assay: (3H)dopamine release from PC 12 cells", "assay_type": "cell-based", "conditions": "at 10^-6 M; (3H)DA release stimulated by bradykinin, PC12 cells", "procedure": "BRADYKININ ANTAGONIST ASSAY (Displacement of (^3 H)dopamine release from PC 12 cells)\nNovel backbone cyclized peptide analogs of the present invention were assayed in vitro for bradykinin antagonist activity by protection of (^3 H)dopamine release from PC 12 cells that express bradykinin receptors. PC12 cells were grown in Dulbecco Modified Eagle's medium with high glucose, supplemented with 10% horse serum, 5% fetal calf serum, 130 units/ml penicillin and 0.1 mg/ml streptomycin. For experiments, cells were removed from the medium using 1 mmole EDTA and replated on collagen coated-12-well plates and assayed 24 hr later. Release of (^3 H)dopamine was determined as follows: cells were incubated for 1.5 hr at 37° C. with 0.5 ml of growth medium and […] (^3 H)DA (41 Ci/mmole) and […] pargyline followed by extensive washing with medium (3×1 ml) and release buffer consisting of (mM): 130 NaCl; 5 KCl; 25 NaHCO3; 1 NaH2 PO4; 10 glucose and 1.8 CaCl2. In a typical experiment, cells were incubated with 0.5 ml buffer for 5 consecutive incubation periods of 3 min each at 37° C. Spontaneous (^3 H)DA release was measured by collecting the medium released by the cells successively for the first 3 min period. Antagonists were added to the cells 3 min prior to stimulation (at the second period), and stimulation of (^3 H)DA release by 100 nmole of bradykinin are monitored during the 3 period by 60 mmole KCl. The remaining of the (^3 H)DA was extracted from the cells by over night incubation with 0.5 ml 0.1N HCl. (^3 H)DA release during each 3 min period was expressed as a % of the total (^3 H)DA content of the cells. Net evoked release was calculated from (^3 H)DA release during stimulation period after subtracting basal (^3 H)DA release in the preceding baseline period if not indicated otherwise."}, "BK2 receptors": {"biological_target": "T2, BK2 receptors (Cavia porcellus, UniProt O70526)", "T2 construct": "This tissue contains predominantly BK2 receptors; from tissue; host or cells: guinea-pig ileum, longitudinal muscle layer with adhering mesenteric plexus", "T2 sequence (O70526 1-372)": "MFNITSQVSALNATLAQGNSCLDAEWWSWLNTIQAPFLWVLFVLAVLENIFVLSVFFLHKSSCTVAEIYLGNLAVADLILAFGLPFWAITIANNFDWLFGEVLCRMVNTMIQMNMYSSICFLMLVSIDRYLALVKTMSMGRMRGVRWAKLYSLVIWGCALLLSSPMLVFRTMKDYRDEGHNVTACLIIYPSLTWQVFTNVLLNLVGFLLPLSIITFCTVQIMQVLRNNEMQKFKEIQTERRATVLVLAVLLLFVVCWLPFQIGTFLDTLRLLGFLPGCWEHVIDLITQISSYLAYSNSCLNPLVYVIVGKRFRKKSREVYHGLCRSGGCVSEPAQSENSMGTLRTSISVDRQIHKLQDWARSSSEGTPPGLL", "experiment": "Bradykinin antagonist assay: guinea-pig ileum contraction", "conditions": "at 10^-6 M, BK 2×10^-8 M, atropine 1 μM present", "quoted_text": "The ileum of the guinea-pig was selected as the preparation for the bioassay. This tissue contains predominantly BK2 receptors. The preparation consists of the longitudinal muscle layer with the adhering mesenteric plexus. The isolated preparation was kept in Krebs solution and contractions were measured with an isometric force transducer. […] Atropine (1 μM) was always present."}}, "note": "Numbered stars: 1 amine (or outer) side, 2 acyl side, 3 side chain; on linkers, the order of the positions; unused ones are H or OH. Bridge positions count the residues as written; N and C are the ends. Square brackets hold non-standard residues; d marks the D form. Peptide text beside a SMILES is read from it. NGly(3-aminopropyl) = O=C(CN(CCCN[*:3])[*:1])[*:2]; N(2-Aminoethyl)Gly = O=C(CN(CCN[*:3])[*:1])[*:2]; N(CH2CH2CO)Gly = O=C(CN(CCC(=O)[*:3])[*:1])[*:2]; N(CH2CH2COOH)Gly = O=C(O)CCNCC(=O)O; Gly(N(CH2)3NH2) = NCCCNCC(=O)O"}
{"compound": "C[C@@H](O)[C@H](NC(=O)CN1CCCNC(=O)CCN(C(=O)[C@H](N)Cc2ccccc2)CC(=O)N[C@@H](Cc2ccccc2)C(=O)N[C@H](Cc2c[nH]c3ccccc23)C(=O)N[C@@H](CCCCN)C(=O)N[C@@H]([C@@H](C)O)C1=O)C(N)=O", "note": "[PTR 3007] (H-[dF][N(CH2CH2CO)Gly]F[dW]KT[NGly(3-aminopropyl)]T-NH2; lactam 2-7)", "values": [{"measurement": "respiratory disturbances, stereotyped behavior, muscle tone", "setting": "[1]; rats observed for 4 hours post administration", "value": "no respiratory disturbances"}, {"measurement": "tolerability after single intraperitoneal application", "setting": "[1]; rats, dose of 1.5 mg/kg", "value": "well tolerated"}]}
{"compound": "C[C@@H](O)[C@H](NC(=O)CN(CCCN)C(=O)[C@@H](NC(=O)[C@H](CCCCN)NC(=O)[C@@H](Cc1c[nH]c2ccccc12)NC(=O)[C@H](Cc1ccccc1)NC(=O)CN(CC(=O)O)C(=O)[C@H](N)Cc1ccccc1)[C@@H](C)O)C(N)=O", "note": "[PTR 3005]", "values": [{"measurement": "inhibition at 1 µM", "setting": "[2]", "value": 9, "unit": "%"}, {"measurement": "inhibition at 0.1 µM", "setting": "[2]", "value": 0, "unit": "%"}, {"measurement": "inhibition at 0.01 µM", "setting": "[2]", "value": 0, "unit": "%"}, {"measurement": "inhibition at 1 µM", "setting": "[3]", "value": 0, "unit": "%"}, {"measurement": "inhibition at 0.1 µM", "setting": "[3]", "value": 0, "unit": "%"}, {"measurement": "inhibition at 0.01 µM", "setting": "[3]", "value": 0, "unit": "%"}]}
{"compound": "C[C@@H](O)[C@H](NC(=O)CN1CCNC(=O)CCN(C(=O)[C@H](N)Cc2ccccc2)CC(=O)N[C@@H](Cc2ccccc2)C(=O)N[C@H](Cc2c[nH]c3ccccc23)C(=O)N[C@@H](CCCCN)C(=O)N[C@@H]([C@@H](C)O)C1=O)C(N)=O", "note": "[PTR 3002] (H-[dF][N(CH2CH2CO)Gly]F[dW]KT[N(2-Aminoethyl)Gly]T-NH2; lactam 2-7)", "values": [{"measurement": "in vitro biostability in human serum", "setting": "[4]", "value": "as stable as octreotide, is more stable than the corresponding non-cyclic structure, and is much more stable than SRIF"}]}
{"compound": "Ada-(D)Arg-Arg-cyclo(N^α (1-(6-aminohexylene)Gly-Hyp-Phe-D-Asp)-D-Phe-Phe-Arg--OH [Example 1]", "values": [{"measurement": "inhibition of BK activity", "setting": "[5]", "value": 30, "unit": "%"}]}
{"compound": "C[C@@H](O)[C@H](NC(=O)CN(CCCN)C(=O)[C@@H](NC(=O)[C@H](CCCCN)NC(=O)[C@@H](Cc1c[nH]c2ccccc12)NC(=O)[C@H](Cc1ccccc1)NC(=O)CN(CCC(=O)O)C(=O)[C@H](N)Cc1ccccc1)[C@@H](C)O)C(N)=O", "note": "[PTR 3008] (H-[dF][N(CH2CH2COOH)Gly]F[dW]KT[Gly(N(CH2)3NH2)]T-NH2)", "values": [{"measurement": "inhibition at 1 µM", "setting": "[2]", "value": 15, "unit": "%"}, {"measurement": "inhibition at 0.1 µM", "setting": "[2]", "value": 6, "unit": "%"}, {"measurement": "inhibition at 0.01 µM", "setting": "[2]", "value": 0, "unit": "%"}, {"measurement": "inhibition at 1 µM", "setting": "[3]", "value": 0, "unit": "%"}, {"measurement": "inhibition at 0.1 µM", "setting": "[3]", "value": 0, "unit": "%"}, {"measurement": "inhibition at 0.01 µM", "setting": "[3]", "value": 0, "unit": "%"}]}
{"compound": "Ada-D-Arg-Arg-N^α (6-acetamidohexylene)Gly-Hyp-Phe-D-Asp(NH-Me)-D-Phe-Phe-Arg--OH [Example 2]", "values": [{"measurement": "inhibition of BK activity", "setting": "[5]", "value": 0, "unit": "%"}, {"measurement": "inhibition of BK activity", "setting": "BK2 receptors", "value": 0, "unit": "%"}]}
{"compound": "H-D-Arg-Arg-cyclo(N^α (4-propanoyl)Gly-Hyp-Phe-N^α (3-amido-propyl)-S-Phe)-Ser-D-Phe-Phe-Arg--OH [Example 4]", "values": [{"measurement": "inhibition of BK activity", "setting": "[5]", "value": 17, "unit": "%"}]}
